In this test the target is T1, hKv7.2/7.3 (Homo sapiens, UniProt O43525+O43526).
T1 construct: host or cells: HEK cells, tetracycline-inducible expression
The test can be described thus: Kv7.2/7.3 Activation Assay, QPatch planar patch-clamp single concentration screen. It counts as cell-based. The following applies: increase in current over baseline, Kv7.2/Kv7.3 co-expressing HEK cells, compound concentration 3 μM, steady-state current at end of 2 s pulse to −30 mV. Here is the method: The ability of compounds to potentiate K-currents in Kv7.2/7.3 containing HEK cells was assessed using planar patch-clamp on the QPatch automated screening platform.
Cell Line: The hKv7.2/7.3 cell line was obtained from Chantest (Cleveland, OH 44128) cat. #CT6147. These HEK cells will express the Kv7.2/7.3 ion channels when induced.
Cell Culture: Cells were maintained in a media containing DMEM/F12; 50/50 (GIBCO cat. #11330), 10% Fetal Bovine Serum (FBS) (GIBCO cat. #26140), 100 units/mL Penicillin-Streptomycin (GIBCO cat. #15140), 0.005 mg/mL Blasticidin (INVIVOGEN cat. #ant-bl-1), 0.5 mg/mL Geneticin (GIBCO cat. #10131), 0.1 mg/mL Zeocin (GIBCO cat. #R25001). Cells used in the electrophysiology assay were maintained in a media without Blasticidin, Geneticin and Zeocin for 2 days and channel expression was induced by adding tetracycline (BIOLINE cat. #BIO-87030) at a final concentration of […]. Cells were grown in T-175 flask to ˜75% confluency. Currents were recorded 24 hours after channel induction.
Compound Plates: Test compounds were prepared by performing serial dilutions on a Biomek NX^P (BECKMAN COULTER). Final dilutions were made in external recording solution with a final DMSO concentration of 0.1% DMSO. For single concentration screens each plate had 10 μM retigabine as a positive control and 0.1% DMSO as a negative control.
Electrophysiology: On the day of the experiment cells were washed with Hank's Balanced Salt Solution (HBBS) (GIBCO cat. #14175) and harvested with Tryple (GIBCO cat. #12604). Cells were then centrifuged at 2000 rpm for 5 minutes and resuspended in CHO—S-SFM (GIBCO cat. #12052) at […]. Cells were stirred for 30 minutes before experiments were started. External recording solution contained (in mM): NaCl (145), KCl (4), CaCl2 (2), MgCl2 (1), HEPES (10) and Glucose (10); pH was adjusted to 7.4 with NaOH and the osmolarity was adjusted to 300-305 mOsM with sucrose if necessary. Internal solution contained (in mM): KCl (125), KF (10), EGTA (5), Na2ATP (5), MgCl2 (3.2), HEPES (5); pH was adjusted to 7.2 with KOH and the osmolarity was adjusted to 298-302 mOsM with sucrose.
Potassium channel activity was measured on the QPatch HTX (Sophion Bioscience) using QPlates with 48-wells/plate. Each cell was taken as an independent experiment and only one compound was tested per well. Potassium channel activity was elicited by holding at −80 mV and stepping to −30 mV for 2 s followed by a 100 ms pulse to −120 mV.
Single concentration screen: Baseline conditions were obtained by recording 5 sweeps in the external solution only, this was repeated for three applications of the external solution. The effect of test compounds on elicited current was then assessed by recording 5 sweeps in the presence of a 3 μM compound solution. The steady-state current at the end of the 2 s pulse to −30 mV was measured to determine the fold increase from baseline.
Take `CC(C)(C)CC(=O)Nc1nn2ccccc2c1C1CCC1` [Example 1, N-(3-cyclobutylpyrazolo[1,5-a]pyridin-2-yl)-3,3-dimethylbutanamide]: the “QPatch Kv7.2/7.3 Activity” value is on record as “+ (2.0-3.99 (+))”.
As for `CC(C)(C)CC(=O)Nc1nn2ccc(C(F)(F)F)cc2c1C1CCC1` [Example 2, N-(3-cyclobutyl-5-(trifluoromethyl)pyrazolo [1,5-a]pyridin-2-yl)-3,3-dimethylbutanamide], the “QPatch Kv7.2/7.3 Activity” value is “+ (2.0-3.99 (+))”.
For `O=C(CC(C(F)(F)F)C(F)(F)F)Nc1nn2ccccc2c1C1CCC1` [Example 4, N-(3-cyclobutylpyrazolo[1,5-a]pyridin-2-yl)-4,4,4-trifluoro-3-(trifluoromethyl) butanamide] the value was “+/− (1.2-1.99-fold (+/−))”.
With `O=C(CC(C(F)(F)F)C(F)(F)F)Nc1nn2ccc(C(F)(F)F)cc2c1C1CCC1` [Example 5, N-(3-cyclobutyl-5-(trifluoromethyl)pyrazolo [1,5-a]pyridin-2-yl)-4,4,4-trifluoro-3-(trifluoromethyl) butanamide] the entry was “+/− (1.2-1.99-fold (+/−))”.
Consider `CC(C)[C@H](C)C(=O)Nc1nn2ccccc2c1C1CCC1` [Example 6, (S)-N-(3-cyclobutylpyrazolo[1,5-a]pyridin-2-yl)-2,3-dimethylbutanamide], for which the “QPatch Kv7.2/7.3 Activity” value is on record as “+ (2.0-3.99 (+))”.
With `CC(C)[C@H](C)C(=O)Nc1nn2ccc(C(F)(F)F)cc2c1C1CCC1` [Example 7, (S)-N-(3-cyclobutyl-5-(trifluoromethyl)pyrazolo [1,5-a]pyridin-2-yl)-2,3-dimethylbutanamide] the entry was “+ (2.0-3.99 (+))”.
For `CC(C)[C@H](C)C(=O)Nc1nn2ccc(C#N)cc2c1C1CCC1` [Example 8, (S)-N-(5-cyano-3-cyclobutylpyrazolo[1,5-a]pyridin-2-yl)-2,3-dimethylbutanamide] the value was “+ (2.0-3.99 (+))”; for `CC(C)(O)CC(=O)Nc1nn2ccccc2c1C1CCC1` [Example 9, N-(3-cyclobutylpyrazolo[1,5-a]pyridin-2-yl)-3-hydroxy-3-methylbutanamide], “− (<1.2-fold (−))”.
For `CC(C)(O)CC(=O)Nc1nn2ccc(C(F)(F)F)cc2c1C1CCC1` [Example 10, N-(3-cyclobutyl-5-(trifluoromethyl)pyrazolo [1,5-a]pyridin-2-yl)-3-hydroxy-3-methylbutanamide] the value was “+ (2.0-3.99 (+))”.
Consider `CC(C)(O)CC(=O)Nc1nn2ccc(C#N)cc2c1C1CCC1` [Example 11, N-(5-cyano-3-cyclobutylpyrazolo[1,5-a]pyridin-2-yl)-3-hydroxy-3-methylbutanamide], for which the “QPatch Kv7.2/7.3 Activity” value is on record as “+/− (1.2-1.99-fold (+/−))”.
Take `CC(C)(O)CC(=O)Nc1nn2ccc(Br)cc2c1C1CCC1` [Example 12, N-(5-bromo-3-cyclobutylpyrazolo[1,5-a]pyridin-2-yl)-3-hydroxy-3-methylbutanamide]: the “QPatch Kv7.2/7.3 Activity” value is “+ (2.0-3.99 (+))”.
Consider `CC(C)(O)CC(=O)Nc1nn2ccc(C(F)(F)F)cc2c1-c1ccccc1` [Example 13, 3-hydroxy-3-methyl-N-(3-phenyl-5-(trifluoromethyl)pyrazolo [1,5-a]pyridin-2-yl)butanamide], for which the “QPatch Kv7.2/7.3 Activity” value is recorded as “+ (2.0-3.99 (+))”.
On to `COc1ccn2nc(NC(=O)CC(C)(C)O)c(C3CCC3)c2c1` [Example 16, N-(3-cyclobutyl-5-methoxypyrazolo[1,5-a]pyridin-2-yl)-3-hydroxy-3-methylbutanamide], for which the “QPatch Kv7.2/7.3 Activity” value is “+/− (1.2-1.99-fold (+/−))”.
For `CC(C)(O)CC(=O)Nc1nn2ccc(C(F)(F)F)cc2c1-c1ccc(Cl)cc1` [Example 17, N-(3-(4-chlorophenyl)-5-(trifluoromethyl)pyrazolo [1,5-a]pyridin-2-yl)-3-hydroxy-3-methylbutanamide] the value was “+ (2.0-3.99 (+))”.
With `Cc1ccc(-c2c(NC(=O)CC(C)(C)O)nn3ccc(C(F)(F)F)cc23)cc1` [Example 18, 3-hydroxy-3-methyl-N-(3-(p-tolyl)-5-(trifluoromethyl)pyrazolo [1,5-a]pyridin-2-yl)butanamide] the entry was “+ (2.0-3.99 (+))”; with `CC(C)(O)CC(=O)Nc1nn2c(Br)cccc2c1C1CCC1` [Example 19, N-(7-bromo-3-cyclobutylpyrazolo[1,5-a]pyridin-2-yl)-3-hydroxy-3-methylbutanamide], “+ (2.0-3.99 (+))”; with `O=C(CC1(O)CCCC1)Nc1nn2ccc(Cl)cc2c1C1CCC1` [Example 20, N-(5-chloro-3-cyclobutylpyrazolo[1,5-a]pyridin-2-yl)-2-(1-hydroxycyclopentyl) acetamide], “+ (2.0-3.99 (+))”.
For `O=C(CC1(O)CCCC1)Nc1nn2ccc(C(F)(F)F)cc2c1C1CCC1` [Example 21, N-(3-cyclobutyl-5-(trifluoromethyl)pyrazolo [1,5-a]pyridin-2-yl)-2-(1-hydroxycyclopentyl) acetamide] the value was “+ (2.0-3.99 (+))”.
As to `O=C(CC1(O)CCC1)Nc1nn2ccc(C(F)(F)F)cc2c1-c1ccc(F)cc1` [Example 22, N-(3-(4-fluorophenyl)-5-(trifluoromethyl)pyrazolo [1,5-a]pyridin-2-yl)-2-(1-hydroxycyclobutyl) acetamide], the “QPatch Kv7.2/7.3 Activity” value is recorded as “+ (2.0-3.99 (+))”.
On to `CC(O)(CC(=O)Nc1nn2ccc(C(F)(F)F)cc2c1C1CCC1)C1CCC1` (stereo not shown) [Example 23, 3-cyclobutyl-N-(3-cyclobutyl-5-(trifluoromethyl)pyrazolo [1,5-a]pyridin-2-yl)-3-hydroxybutanamide], for which the “QPatch Kv7.2/7.3 Activity” value is given as “+ (2.0-3.99 (+))”.
For `COc1ccn2nc(NC(=O)CC(C)(O)C3CCCC3)c(C3CCC3)c2c1` (stereo not shown) [Example 26, N-(3-cyclobutyl-5-methoxypyrazolo[1,5-a]pyridin-2-yl)-3-cyclopentyl-3-hydroxybutanamide] the value was “+ (2.0-3.99 (+))”; for `CC(O)(CC(=O)Nc1nn2ccc(C(F)(F)F)cc2c1C1CCC1)c1ccccc1` (stereo not shown) [Example 27, N-(3-cyclobutyl-5-(trifluoromethyl)pyrazolo [1,5-a]pyridin-2-yl)-3-hydroxy-3-phenylbutanamide], “+ (2.0-3.99 (+))”; for `CC(O)(CC(=O)Nc1nn2ccc(C#N)cc2c1C1CCC1)c1ccccc1` (stereo not shown) [Example 28, N-(5-cyano-3-cyclobutylpyrazolo[1,5-a]pyridin-2-yl)-3-hydroxy-3-phenylbutanamide], “+/− (1.2-1.99-fold (+/−))”.
For the molecule `C[C@](O)(CC(=O)Nc1nn2ccc(C(F)(F)F)cc2c1C1CCC1)c1ccccc1` [Example 29, (S)-N-(3-cyclobutyl-5-(trifluoromethyl)pyrazolo [1,5-a]pyridin-2-yl)-3-hydroxy-3-phenylbutanamide], the “QPatch Kv7.2/7.3 Activity” value is reported as “++ (4.0-5.99 (++))”.
For `C[C@](O)(CC(=O)Nc1nn2ccc(C#N)cc2c1C1CCC1)c1ccccc1` [Example 30, (S)-N-(5-cyano-3-cyclobutylpyrazolo[1,5-a]pyridin-2-yl)-3-hydroxy-3-phenylbutanamide] the value was “+ (2.0-3.99 (+))”.
For the molecule `C[C@](O)(CC(=O)Nc1nn2ccc(Cl)cc2c1C1CCC1)c1ccccc1` [Example 31, (S)-N-(5-chloro-3-cyclobutylpyrazolo[1,5-a]pyridin-2-yl)-3-hydroxy-3-phenylbutanamide], the “QPatch Kv7.2/7.3 Activity” value is “+ (2.0-3.99 (+))”.
For `C[C@](O)(CC(=O)Nc1nn2ccc(C(F)(F)F)cc2c1-c1ccc(F)cc1)c1ccccc1` [Example 32, (S)-N-(3-(4-fluorophenyl)-5-(trifluoromethyl)pyrazolo [1,5-a]pyridin-2-yl)-3-hydroxy-3-phenylbutanamide], the “QPatch Kv7.2/7.3 Activity” value is on record as “+ (2.0-3.99 (+))”.
For `C[C@](O)(CC(=O)Nc1nn2c(Br)cccc2c1C1CCC1)c1ccccc1` [Example 33, (S)-N-(7-bromo-3-cyclobutylpyrazolo[1,5-a]pyridin-2-yl)-3-hydroxy-3-phenylbutanamide] the value was “+ (2.0-3.99 (+))”.

The record behind these values is patent publication US20250066351A1, “PYRAZOLO[1,5-A]PYRIDIN-2,3-YL AMIDES AS KV7 CHANNEL ACTIVATORS” (Biohaven Therapeutics Ltd., priority 2022, published 2025).
